Legend:
[1] = biological target: porcine trypsin (Sus scrofa, UniProt P00761); experiment: Trypsin inhibition assay, fluorogenic substrate Z‐Gly‐Gly‐Arg‐AMC; type: biochemical; conditions: for inhibition at 5 µM: read-out: Trypsin inhibition % at 5 μM
[2] = biological target: human Factor Xa (Homo sapiens, UniProt P00742); experiment: FXa inhibition assay, fluorogenic substrate Boc‐Ile‐Glu‐Gly‐Arg‐AMC; type: biochemical
[3] = biological target: human β‐FXIIa (Homo sapiens, UniProt P00748); type: biochemical
[4] = biological target: thrombin (FIIa) (Homo sapiens, UniProt P00734); experiment: Medium‐throughput screening; type: biochemical; conditions: read-out: Inhibition @100 nM [in MTS] FIIa
[5] = biological target: FXIIa (Homo sapiens, UniProt P00748); experiment: Medium‐throughput screening; type: biochemical; conditions: read-out: Inhibition @100 nM [in MTS] FXIIa
[6] = biological target: human α‐thrombin (factor IIa) (Homo sapiens, UniProt P00734); type: biochemical
[7] = system: human pooled plasma; experiment: In vitro plasma coagulation assay, activated partial thromboplastin time; conditions: 200 μM, fold increase compared to DMSO
[8] = biological target: human plasma β‐FXIIa (Homo sapiens, UniProt P00748); experiment: Mass‐shift analysis of the covalent FXIIa‐inhibitor complex by SEC/ESI‐MS; type: binding; conditions: 15 min incubation, enzyme:inhibitor 1 : 20
human plasma β‐FXIIa, sequence (P00748 373-615 limits assumed, other chains not shown): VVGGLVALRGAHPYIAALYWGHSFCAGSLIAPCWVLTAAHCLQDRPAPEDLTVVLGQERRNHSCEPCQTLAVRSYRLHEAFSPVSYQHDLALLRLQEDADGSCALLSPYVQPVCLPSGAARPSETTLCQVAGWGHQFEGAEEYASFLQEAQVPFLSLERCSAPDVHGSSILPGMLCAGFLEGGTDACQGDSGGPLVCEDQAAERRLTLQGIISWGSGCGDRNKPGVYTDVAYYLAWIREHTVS

human Factor Xa, sequence (P00742 235-488 limits assumed): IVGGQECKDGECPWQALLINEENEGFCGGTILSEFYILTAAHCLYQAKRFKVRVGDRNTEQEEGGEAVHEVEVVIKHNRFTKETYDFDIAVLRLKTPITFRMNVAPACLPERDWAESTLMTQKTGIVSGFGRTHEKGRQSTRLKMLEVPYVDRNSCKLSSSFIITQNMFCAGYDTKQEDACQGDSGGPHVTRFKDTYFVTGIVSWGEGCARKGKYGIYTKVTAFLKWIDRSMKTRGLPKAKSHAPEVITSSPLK
human Factor Xa, sequence (P00742 41-179 limits assumed): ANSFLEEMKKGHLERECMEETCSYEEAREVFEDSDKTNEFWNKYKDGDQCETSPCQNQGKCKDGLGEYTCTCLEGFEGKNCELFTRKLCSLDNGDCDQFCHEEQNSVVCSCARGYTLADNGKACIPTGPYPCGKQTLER
porcine trypsin, sequence (P00761 9-231): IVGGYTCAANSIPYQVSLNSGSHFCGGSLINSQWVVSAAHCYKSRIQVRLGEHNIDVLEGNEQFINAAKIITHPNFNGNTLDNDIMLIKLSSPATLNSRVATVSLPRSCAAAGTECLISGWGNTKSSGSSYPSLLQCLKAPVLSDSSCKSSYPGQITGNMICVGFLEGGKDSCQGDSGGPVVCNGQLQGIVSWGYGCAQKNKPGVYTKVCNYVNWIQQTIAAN
FXIIa, sequence (P00748 373-615 limits assumed, other chains not shown): as the sequence (P00748 373-615 limits assumed, other chains not shown) above
human β‐FXIIa, sequence (P00748 373-615 limits assumed, other chains not shown): as above

Row | Compound | IC50 [1] | IC50 [2] | IC50 [3] | inhibition at 0.1 µM [4] | inhibition at 0.1 µM [5] | IC50 [6] | inhibition at 5 µM [1] | fold improved FXIIa inhibitory activity ([3]; versus parent 33 h (122 nM vs. 33 nM)) | mass shift of FXIIa (acyl moiety adduct) [8] | inhibition at 1 µM ([2]; read-out: FXa inhibition % at 1 μM) | aPTT, fold [7]
1 | Nc1nc(-c2ccc(F)cc2)nn1C(=O)[C@H]1CCCc2ccccc21 [33 f, (S)‐(5‐Amino‐3‐(4‐fluorophenyl)‐1H‐1,2,4‐triazol‐1‐yl)(1,2,3,4‐tetrahydronaphthalen‐1‐yl)‐methanone] | > 5 µM | > 5 µM | ~2 µM | 0% | 29% | > 5 µM | – | – | – | – | –
2 | Nc1nc(-c2cnc3ccccc3n2)nn1C(=O)c1cccc2ccccc12 [39 b, (5‐Amino‐3‐(quinoxalin‐2‐yl)‐1H‐1,2,4‐triazol‐1‐yl)(naphthalen‐1‐yl)methanone] | > 5 µM | > 5 µM | – | – | – | > 5 µM | – | – | – | – | –
3 | Nc1nc(-c2cnccn2)nn1C(=O)Cc1ccccc1I [32 c, 1‐(5‐Amino‐3‐(pyrazin‐2‐yl)‐1H‐1,2,4‐triazol‐1‐yl)‐2‐(2‐iodophenyl)ethan‐1‐one] | > 5 µM | > 5 µM | 0.065 ± 0.009 µM | 15% | 75% | 1.69 ± 0.167 µM | – | – | – | – | –
4 | Cc1nc2ccccc2nc1-c1nc(N)n(C(=O)[C@H]2CCCc3ccccc32)n1 [33 h, (S)‐(5‐Amino‐3‐(3‐methylquinoxalin‐2‐yl)‐1H‐1,2,4‐triazol‐1‐yl)(1,2,3,4‐tetrahydronaphthalen‐1‐yl)methanone] | > 5 µM | > 5 µM | 0.122 ± 0.035 µM | 0% | 81% | > 5 µM | – | – | – | – | –
5 | CC(C)(C)c1nc(N)n(C(=O)[C@H]2CCCc3ccccc32)n1 [33 e, (S)‐(5‐Amino‐3‐(tert‐butyl)‐1H‐1,2,4‐triazol‐1‐yl)(1,2,3,4‐tetrahydronaphthalen‐1‐yl)methanone] | > 5 µM | > 5 µM | > 5 µM | 1% | 0% | > 5 µM | – | – | – | – | –
6 | Nc1nc(-c2ccccn2)nn1C(=O)Cc1ccccc1I [32 a, 1‐(5‐Amino‐3‐(pyridin‐2‐yl)‐1H‐1,2,4‐triazol‐1‐yl)‐2‐(2‐iodophenyl)ethan‐1‐one] | > 5 µM | – | – | 2% | 54% | – | – | – | – | – | –
7 | Nc1nc(-c2ccc3ccccc3n2)nn1C(=O)[C@H]1CCCc2ccccc21 [33 g, (S)‐(5‐Amino‐3‐(quinolin‐2‐yl)‐1H‐1,2,4‐triazol‐1‐yl)(1,2,3,4‐tetrahydronaphthalen‐1‐yl)‐methanone] | > 5 µM | > 5 µM | 0.033 ± 0.001 µM | 5% | 94% | 1.01 ± 0.155 µM | – | – | 158.2 Da | – | –
8 | Nc1nc(-c2ccc3ccccc3n2)nn1C(=O)c1ccccc1 [40 a, (5‐Amino‐3‐(quinoline‐2‐yl)‐1H‐1,2,4‐triazol‐1‐yl)(phenyl)methanone] | > 5 µM | > 5 µM | 0.013 ± 0.002 µM | – | – | 0.124 ± 0.01 µM | – | – | – | – | –
9 | Nc1nc(-c2ccccn2)nn1C(=O)[C@H]1CCCc2ccccc21 [33 a, (S)‐(5‐Amino‐3‐(pyridin‐2‐yl)‐1H‐1,2,4‐triazol‐1‐yl)(1,2,3,4‐tetrahydro‐naphthalen‐1‐yl)‐methanone] | > 5 µM | – | – | 10% | 73% | – | – | – | – | – | –
10 | Cc1cccc(-c2nc(N)n(C(=O)Cc3ccccc3I)n2)n1 [32 b, 1‐(5‐Amino‐3‐(6‐methylpyridin‐2‐yl)‐1H‐1,2,4‐triazol‐1‐yl)‐2‐(2‐iodophenyl)ethan‐1‐one] | > 5 µM | > 5 µM | 0.073 ± 0.022 µM | 0% | 54% | > 5 µM | – | – | – | – | –

Second part, led by results:

Row | IC50 [1] | IC50 [2] | IC50 [3] | inhibition at 0.1 µM [4] | inhibition at 0.1 µM [5] | IC50 [6] | inhibition at 5 µM [1] | fold improved FXIIa inhibitory activity ([3]; versus parent 33 h (122 nM vs. 33 nM)) | mass shift of FXIIa (acyl moiety adduct) [8] | inhibition at 1 µM ([2]; read-out: FXa inhibition % at 1 μM) | Compound | aPTT, fold [7]
11 | > 5 µM | > 5 µM | > 5 µM | – | – | – | – | – | – | – | Nc1nc(-c2nccc3ccccc23)nn1C(=O)c1ccc2ccccc2c1 [41 c, (5‐Amino‐3‐(isoquinolin‐1‐yl)‐1H‐1,2,4‐triazol‐1‐yl)(naphthalen‐2‐yl)methanone] | –
12 | > 5 µM | – | > 5 µM | 1% | -1% | – | – | – | – | – | O=C(NC[C@H]1CN(c2ccc(N3CCOCC3=O)cc2)C(=O)O1)c1ccc(Cl)s1 [Rivaroxaban, reference compound] | –
13 | – | > 5 µM | 0.033 ± 0.007 µM | – | – | > 5 µM | 32% | 3.7 fold | – | – | Nc1nc(-c2cnc3ccccc3n2)nn1C(=O)[C@H]1CCCc2ccccc21 [39 a, (S)‐(5‐Amino‐3‐(quinoxalin‐2‐yl)‐1H‐1,2,4‐triazol‐1‐yl)(1,2,3,4‐tetrahydronaphthalen‐1‐yl)‐methanone] | –
14 | > 5 µM | > 5 µM | 0.106 ± 0.013 µM | 36% | 80% | 0.143 ± 0.005 µM | – | – | – | – | Nc1nc(-c2cnccn2)nn1C(=O)[C@H]1CCCc2ccccc21 [33 c, (S)‐(5‐Amino‐3‐(pyrazin‐2‐yl)‐1H‐1,2,4‐triazol‐1‐yl)(1,2,3,4‐tetrahydronaphthalen‐1‐yl)methanone] | 2.7 fold
15 | > 5 µM | > 5 µM | 0.547 ± 0.058 µM | 62% | 14% | 0.038 ± 0.009 µM | – | – | – | – | Nc1nc(-c2nccc3ccccc23)nn1C(=O)[C@H]1CCCc2ccccc21 [33 i, (S)‐(5‐Amino‐3‐(isoquinolin‐1‐yl)‐1H‐1,2,4‐triazol‐1‐yl)(1,2,3,4‐tetrahydronaphthalen‐1‐yl)‐methanone] | –
16 | > 5 µM | > 5 µM | 0.716 ± 0.082 µM | 0% | 8% | > 5 µM | – | – | – | – | Cc1nc(-c2cccs2)ccc1-c1nc(N)n(C(=O)Cc2ccccc2I)n1 [32 d, 1‐(5‐Amino‐3‐(2‐methyl‐6‐(thiophen‐2‐yl)pyridin‐3‐yl)‐1H‐1,2,4‐triazol‐1‐yl)‐2‐(2‐iodophenyl)‐ethan‐1‐one] | –
17 | > 5 µM | > 5 µM | > 5 µM | 1% | 3% | > 5 µM | – | – | – | – | CC(C)(C)c1nc(N)n(C(=O)Cc2ccccc2I)n1 [32 e, 1‐(5‐Amino‐3‐(tert‐butyl)‐1H‐1,2,4‐triazol‐1‐yl)‐2‐(2‐iodophenyl)ethan‐1‐one] | –
18 | > 5 µM | > 5 µM | 1.14 ± 0.334 µM | 0% | 26% | > 5 µM | – | – | – | – | Cc1nc(-c2cccs2)ccc1-c1nc(N)n(C(=O)[C@H]2CCCc3ccccc32)n1 [33 d, (S)‐(5‐Amino‐3‐(2‐methyl‐6‐(thiophen‐2‐yl)pyridin‐3‐yl)‐1H‐1,2,4‐triazol‐1‐yl)(1,2,3,4‐tetrahydro‐naphthalen‐1‐yl)methanone] | –
19 | – | – | > 5 µM | 91% | -1% | – | 59% | – | – | 34% | [H]/N=C(/N)c1ccc(NCc2nc3cc(C(=O)N(CCC(=O)O)c4ccccn4)ccc3n2C)cc1 [Dabigatran, reference compound] | –
20 | > 5 µM | > 5 µM | 1.52 ± 0.182 µM | 1% | 8% | 5.7 ± 0.33 µM | – | – | – | – | Nc1nc(-c2ccccc2C(=O)N2CCCCC2)nn1C(=O)[C@H]1CCCc2ccccc21 [33 j, (S)‐(2‐(5‐Amino‐1‐(1,2,3,4‐tetrahydronaphthalene‐1‐carbonyl)‐1H‐1,2,4‐triazol‐3‐yl)phenyl)‐(piperidin‐1‐yl)methanone] | –
21 | > 5 µM | > 5 µM | 0.236 ± 0.005 µM | – | – | 0.063 ± 0.001 µM | – | – | – | – | Nc1nc(-c2nccc3ccccc23)nn1C(=O)c1ccccc1 [41 a, (5‐Amino‐3‐(isoquinolin‐1‐yl)‐1H‐1,2,4‐triazol‐1‐yl)(phenyl)methanone] | –
22 | > 5 µM | > 5 µM | 0.214 ± 0.035 µM | 5% | 36% | 0.819 ± 0.015 µM | – | – | – | – | Cc1cccc(-c2nc(N)n(C(=O)[C@H]3CCCc4ccccc43)n2)n1 [33 b, (S)‐(5‐Amino‐3‐(6‐methylpyridin‐2‐yl)‐1H‐1,2,4‐triazol‐1‐yl)(1,2,3,4‐tetrahydronaphthalen‐1‐yl)‐methanone] | –
23 | > 5 µM | – | 0.008 ± 0.002 µM | – | – | 0.348 ± 0.015 µM | – | – | – | – | Nc1nc(-c2ccc3ccccc3n2)nn1C(=O)c1cccc2ccccc12 [40 b, (5‐Amino‐3‐(quinolin‐2‐yl)‐1H‐1,2,4‐triazol‐1‐yl)(naphthalen‐1‐yl)methanone] | –
